Source: patent publication US20230233569A1 (Revolution Medicines, Inc., priority 2020, published 2023)
pEC50, pIC50: −log10 of the molar value. Like-named read-outs stand apart in the source and are kept apart here.

Tests used:
NCI-H358 (K-Ras G12C) = assay: CellTiter-Glo cell viability assay, 5-day treatment; type: cell-based; conditions: Homo sapiens
Procedure, shortened: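 Viability is read as luminescence on day 5 after direct compound addition to plated cells, following about 30 minutes' room-temperature equilibration. Each signal is scaled to mean DMSO as 100%.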

KRAS Q61H = KRAS Q61H (Homo sapiens, UniProt P01116+P62937, Q61H); assay: Disruption of BRAF RBD interaction with Ras (FRET / MOA assay, with Cyclophilin A); type: biochemical; conditions: KRAS Q61H; read-out: KRAS Q61H FRET data IC50
Sequence of KRAS Q61H (P01116 1-169 isoform P01116-2 Q61H limits assumed): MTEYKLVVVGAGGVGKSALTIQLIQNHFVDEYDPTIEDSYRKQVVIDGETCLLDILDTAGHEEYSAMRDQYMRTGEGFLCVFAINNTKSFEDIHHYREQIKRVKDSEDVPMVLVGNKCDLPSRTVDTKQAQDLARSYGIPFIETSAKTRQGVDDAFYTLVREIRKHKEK
Sequence of KRAS Q61H (P62937 whole entry): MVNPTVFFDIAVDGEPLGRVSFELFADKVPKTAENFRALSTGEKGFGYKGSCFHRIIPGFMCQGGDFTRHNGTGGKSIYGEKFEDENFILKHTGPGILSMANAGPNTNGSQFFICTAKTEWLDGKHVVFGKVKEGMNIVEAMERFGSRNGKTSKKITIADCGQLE
Procedure, shortened: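 IC50 reflects compound-driven Ras:Cyclophilin A ternary complex displacing BRAF RBD, read as lowered TR-FRET ratio relative to DMSO after Eu anti-His (10 nM) and APC anti-GST (50 nM) detection for 1.5 h. Prior incubation 3 h, 25° C, with 12.5 nM GMPPNP-loaded Ras, 50 nM BRAF RBD, 25 μM Cyclophilin A; top compound 30 μM.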

[1] = tested on: K-Ras G12C (NCI-H358 cells); assay: Potency assay: pERK (AlphaLISA SureFire or In-Cell Western); type: cell-based; conditions: Homo sapiens, NCI-H358
Procedure, shortened: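 Cellular pERK decrease measured after 4 h compound exposure (37 °C, 5% CO2) of NCI-H358 cells, 10-point 3-fold series from 10 mM DMSO stock, duplicates. Detection either by In-Cell Western (IR-800CW secondary, DRAQ5 stain) or AlphaLISA SureFire Ultra p-ERK1/2; 4-parameter sigmoidal fit gave IC50.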

[2] = NCI-H358, H358, K-Ras G12C, read-out: Additional H358 Cell Viability assay data (K-Ras G12C, IC50)
[3] = H358 KRAS G12C, read-out: pERK EC50

Structure (SMILES) | pIC50 (NCI-H358 (K-Ras G12C); [2]) | pIC50 (KRAS Q61H) | pEC50 [1, 3] | pIC50 (NCI-H358 (K-Ras G12C); NCI-H358, 120 h, 5-day treatment, read-out: H358 Cell Viability IC50) | pEC50 ([1]; read-out: H358 pERK EC50)
CCn1c(-c2cccnc2[C@H](C)OC)c2c3cc(ccc31)-c1csc(n1)C[C@H](NC(=O)[C@H](C(C)C)N(C)C(=O)N(C)C1CN(C(=O)/C=C/C(C)(C)O)C1)C(=O)N1CCC[C@H](N1)C(=O)OCC(C)(C)C2 (atropisomer, axis not shown) [Example A350] | 6.00 to 7.00 | 7.00 to 8.00 | > 5.30 | – | –
CCn1c(-c2cccnc2[C@H](C)OC)c2c3cc(ccc31)-c1cccc(c1)C[C@H](NC(=O)[C@H](C(C)C)N1CC[C@]3(CCN(C(=O)C#C[C@]4(N(C)C)CCOC4)C3)C1=O)C(=O)N1CCC[C@H](N1)C(=O)OCC(C)(C)C2 [Example A559] | > 8.00 | 6.00 to 7.00 | > 5.30 | – | –
CCn1c(-c2cccnc2[C@H](C)OC)c2c3cc(ccc31)-c1cc(O)cc(c1)C[C@H](NC(=O)[C@H](C(C)C)N(C)C(=O)[C@H]1CCN(C(=O)OC)C1)C(=O)N1CCC[C@H](N1)C(=O)OCC(C)(C)C2 (atropisomer, axis not shown) [Example A3] | – | 7.00 to 8.00 | – | 7.24 | 7.74
C=CS(=O)(=O)N1CC[C@H](C(=O)N(C)[C@H](C(=O)N[C@H]2Cc3nc(cs3)-c3ccc4c(c3)c(c(-c3cncnc3)n4CC)CC(C)(C)COC(=O)[C@@H]3CCCN(N3)C2=O)C(C)C)C1 [Example A170] | 6.00 to 7.00 | < 5.00 | > 5.30 | – | –
C=CC(=O)N1CCO[C@@]2(CCN(C(=O)N(C)[C@H](C(=O)N[C@H]3Cc4nc(cs4)-c4ccc5c(c4)c(c(-c4cccnc4[C@H](C)OC)n5CC(F)(F)F)CC(C)(C)COC(=O)C4CCCN(N4)C3=O)C(C)C)C2)C1 (stereo partly drawn) [Example A594] | > 8.00 | 7.00 to 8.00 | > 5.30 | – | –
CCn1c(-c2cccnc2[C@H](C)OC)c2c3cc(ccc31)-c1cccc(c1)C[C@H](NC(=O)[C@@H](COC1CN(C(=O)C#C[C@@H]3COCCN3C)C1)C(C)C)C(=O)N1CCC[C@H](N1)C(=O)OCC(C)(C)C2 (atropisomer, axis not shown) [Example A648] | 7.00 to 8.00 | < 5.00 | > 5.30 | – | –
C=CC(=O)N1CCO[C@H]2CN(C(=O)N(C)[C@H](C(=O)N[C@H]3Cc4cccc(n4)-c4ccc5c(c4)c(c(-c4cccnc4[C@H](C)OC)n5CC(F)(F)F)CC(C)(C)COC(=O)C4CCCN(N4)C3=O)C(C)C)C[C@H]21 (stereo partly drawn) [Example A595] | > 8.00 | 6.00 to 7.00 | > 5.30 | – | –
C=CC(=O)N1CC[C@H](C(=O)N(C)[C@H](C(=O)N[C@H]2Cc3cc(O)cc(c3)-c3ccc4c(c3)c(c(-c3cc(C)cnc3[C@H](C)OC)n4CC)CC(C)(C)COC(=O)[C@@H]3CCCN(N3)C2=O)C(C)C)C1 [Example A167] | 7.00 to 8.00 | 7.00 to 8.00 | > 5.30 | – | –
CC#CC(=O)N1CC[C@H](C(=O)N(C)[C@H](C(=O)N[C@H]2Cc3nc(cs3)-c3ccc4c(c3)c(c(-c3cccnc3[C@H](C)OC)n4CC)CC(C)(C)COC(=O)[C@@H]3CCCN(N3)C2=O)C(C)C)C1 [Example A168] | 7.00 to 8.00 | 5.00 to 6.00 | > 5.30 | – | –
C=CC(=O)N1CC[C@@H](N(C)C(=O)N(C)[C@H](C(=O)N[C@H]2Cc3nc(cs3)-c3ccc4c(c3)c(c(-c3cccnc3[C@H](C)OC)n4CC(F)(F)F)CC(C)(C)COC(=O)[C@@H]3CCCN(N3)C2=O)C(C)C)C1 (atropisomer, axis not shown) [Example A728] | 7.00 to 8.00 | 6.00 to 7.00 | > 5.30 | – | –
CCn1c(-c2cccnc2[C@H](C)OC)c2c3cc(ccc31)-c1cccc(c1)C[C@H](NC(=O)[C@@H](CN1CC[C@]3(CCN(C(=O)C#C[C@H]4COCCN4C)C3)C1=O)C(C)C)C(=O)N1CCCC(N1)C(=O)OCC(C)(C)C2 (stereo partly drawn) [Example A592] | > 8.00 | 5.00 to 6.00 | > 5.30 | – | –
